Laboratory results: patent US11279733B2, “Peptide antibiotics” (priority 2017, dated 2022)
Values after ≈ are worked out from the molar mass of the structure shown. Read-outs that look alike come from different tables or passages of the source. Positions of bridges follow the written chain, without caps; N, C: chain ends. Non-standard residues stand in square brackets, D forms with d. Residues, ends and D or L forms follow the SMILES beside them. *: point of attachment. Benzoyl(4-Ph) = O=C(c1ccc(-c2ccccc2)cc1)*; Decanoyl(3R-OH) = CCCCCCC[C@@H](O)CC(=O)*; dIgl = N[C@@H](C(=O)O)C1Cc2ccccc2C1; Igl = N[C@H](C(=O)O)C1Cc2ccccc2C1; Ala(cPr) = N[C@@H](CC1CC1)C(=O)O; dDab = NCC[C@@H](N)C(=O)O; Heptanoyl = CCCCCCC(=O)*; Octanoyl = CCCCCCCC(=O)*; dDap = NC[C@@H](N)C(=O)O; Dab = NCC[C@H](N)C(=O)O

Experiments:
in vitro = conditions: for CC50 at 24 h: human
Procedure, shortened: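 4000 cells/well, 24 h attach (37 °C, 5% CO2); compound 24 h; 5 μM resazurin 2 h, 37 °C; fluorescence ex/em 560/590. CC50 by curve fit.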

P. aeruginosa ATCC 27853 = conditions: ATCC 27853
Procedure, shortened: (§1)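 Mid-log cultures grown in Mueller Hinton broth at 37° C were tested by 2-fold broth microdilution at 5×10^5 CFU/mL final. Compounds were dissolved in water and tested over a final range of 32 to 0.015 μg/mL.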

[1] = system: P. aeruginosa GN_105, PmxR; conditions: GN 105, PmxR
Procedure, shortened: as §1

[2] = system: S. aureus ATCC 25923, MSSA; conditions: ATCC 25923
Procedure, shortened: as §1

[3] = system: K. pneumoniae GN_102 PmxR; conditions: GN 102 PmxR
Procedure, shortened: as §1

[4] = system: K. pneumoniae GN_106, PmxR; conditions: GN 106, PmxR
Procedure, shortened: as §1

E. coli ATCC 25922 = conditions: ATCC 25922
Procedure, shortened: as §1

[5] = system: K. pneumoniae ATCC BAA-2146, NDM-1 pos; conditions: ATCC BAA-2146
Procedure, shortened: as §1

A. baumannii GN_093 PmxR = conditions: GN 093 PmxR
Procedure, shortened: as §1

K. pneumoniae ATCC 13883 = conditions: ATCC 13883
Procedure, shortened: as §1

A. baumannii ATCC 19606 = conditions: ATCC 19606
Procedure, shortened: as §1

[6] = system: K. pneumoniae ATCC 700603, MDR; conditions: ATCC 700603
Procedure, shortened: as §1

[7] = system: P. aeruginosa GN_043, PmxR
Procedure, shortened: as §1

SMILES	CC50 at 24 h (in vitro)	MIC P. aeruginosa ATCC 27853 (P. aeruginosa ATCC 27853)	MIC P. aeruginosa GN_105, PmxR [1]	MIC S. aureus ATCC 25923, MSSA [2]	MIC K. pneumoniae GN_102 PmxR [3]	MIC K. pneumoniae GN_106, PmxR [4]	MIC E. coli ATCC 25922 (E. coli ATCC 25922)	MIC K. pneumoniae ATCC BAA-2146, NDM-1 pos [5]	MIC A. baumannii GN_093 PmxR (A. baumannii GN_093 PmxR)	MIC K. pneumoniae ATCC 13883 (K. pneumoniae ATCC 13883)	MIC A. baumannii ATCC 19606 (A. baumannii ATCC 19606)	MIC K. pneumoniae ATCC 700603, MDR [6]	MIC P. aeruginosa GN_043, PmxR ([7]; polymyxin-resistant)	MIC P. aeruginosa GN_043, PmxR ([7]; P. aeruginosa GN_043, PmxR)	CC50 (in vitro)	MIC P. aeruginosa GN_043, PmxR [7]
CCCCCCCC(=O)N[C@H](CCN)C(=O)N[C@H]1CCNC(=O)[C@H](Cc2c[nH]c3ccccc23)NC(=O)[C@H](CCN)NC(=O)[C@H](CCN)NC(=O)[C@H](CC(C)C)NC(=O)[C@@H](Cc2ccccc2)NC(=O)[C@H](CCN)NC1=O [compound 8901, nC7CO-D-Dab-cyc[L-Dab-L-Dab-D-Phe-L-Leu-L-Dab-L-Dab-L-Trp]] (Octanoyl-[dDab][Dab][Dab][dF]L[Dab][Dab]W; lactam 2-C)	> 300 µM	2 µg/mL (≈ 1.86 µM)	8 µg/mL (≈ 7.45 µM)	16 µg/mL (≈ 14.9 µM)	32 µg/mL (≈ 29.8 µM)	32 µg/mL (≈ 29.8 µM)	8 µg/mL (≈ 7.45 µM)	8 µg/mL (≈ 7.45 µM)	>32 µg/mL	8 µg/mL (≈ 7.45 µM)	32 µg/mL (≈ 29.8 µM)	8 µg/mL (≈ 7.45 µM)	2 µg/mL (≈ 1.86 µM)			
CCCCCCC[C@@H](O)CC(=O)N[C@H](CCN)C(=O)N[C@H]1CCNC(=O)[C@H](Cc2c[nH]c3ccccc23)NC(=O)[C@H](CCN)NC(=O)[C@H](CCN)NC(=O)[C@H](CC2CC2)NC(=O)[C@@H](Cc2ccccc2)NC(=O)[C@H](CCN)NC1=O [compound 8099, 3(R)OH-nC9CO-D-Dab-cyc[L-Dab-L-Dab-D-Phe-L-Ala(cycloprop)-L-Dab-L-Dab-L-Trp]] ({Decanoyl(3R-OH)}-[dDab][Dab][Dab][dF][Ala(cPr)][Dab][Dab]W; lactam 2-C)	73 µM	2 µg/mL (≈ 1.79 µM)	>32 µg/mL	16 µg/mL (≈ 14.3 µM)	4 µg/mL (≈ 3.59 µM)	4 µg/mL (≈ 3.59 µM)	8 µg/mL (≈ 7.17 µM)	4 µg/mL (≈ 3.59 µM)	16 µg/mL (≈ 14.3 µM)	8 µg/mL (≈ 7.17 µM)	8 µg/mL (≈ 7.17 µM)	8 µg/mL (≈ 7.17 µM)	2 µg/mL (≈ 1.79 µM)			
CCCCCCC[C@@H](O)CC(=O)N[C@H](CCN)C(=O)N[C@H]1CCNC(=O)[C@H](Cc2c[nH]c3ccccc23)NC(=O)[C@H](CCN)NC(=O)[C@H](CCN)NC(=O)[C@H](CC(C)C)NC(=O)[C@@H](C2Cc3ccccc3C2)NC(=O)[C@H](CCN)NC1=O [compound 8826, nC10-3(R)OH-D-Dab-cyc[L-Dab-L-Dab-D-indanylgyl-L-Leu-L-Dab-L-Dab-L-Trp]] ({Decanoyl(3R-OH)}-[dDab][Dab][Dab][dIgl]L[Dab][Dab]W; lactam 2-C)	38 µM	4 µg/mL (≈ 3.5 µM)	4 µg/mL (≈ 3.5 µM)	4 µg/mL (≈ 3.5 µM)	8 µg/mL (≈ 7 µM)	8 µg/mL (≈ 7 µM)	8 µg/mL (≈ 7 µM)	4 µg/mL (≈ 3.5 µM)	8 µg/mL (≈ 7 µM)	8 µg/mL (≈ 7 µM)	8 µg/mL (≈ 7 µM)	8 µg/mL (≈ 7 µM)	4 µg/mL (≈ 3.5 µM)			
CCCCCCC[C@@H](O)CC(=O)N[C@H](CCN)C(=O)N[C@H]1CCNC(=O)[C@H](CC(C)C)NC(=O)[C@H](CCN)NC(=O)[C@H](CCN)NC(=O)[C@H](CC(C)C)NC(=O)[C@H](Cc2ccccc2)NC(=O)[C@H](CCN)NC1=O [compound 5002, 3(R)OH-nC9CO-D-Dab-cyc[L-Dab-L-Dab-L-Phe-L-Leu-L-Dab-L-Dab-L-Leu]] ({Decanoyl(3R-OH)}-[dDab][Dab][Dab]FL[Dab][Dab]L; lactam 2-C)	> 300 µM	4 µg/mL (≈ 3.83 µM)	>32 µg/mL	32 µg/mL (≈ 30.6 µM)	32 µg/mL (≈ 30.6 µM)	>32 µg/mL	32 µg/mL (≈ 30.6 µM)	16 µg/mL (≈ 15.3 µM)	>32 µg/mL	>32 µg/mL	>32 µg/mL	16 µg/mL (≈ 15.3 µM)		8 µg/mL (≈ 7.66 µM)		
CCCCCCC[C@@H](O)CC(=O)N[C@H](CN)C(=O)N[C@H]1CCNC(=O)[C@H](Cc2c[nH]c3ccccc23)NC(=O)[C@H](CCCNC(=N)N)NC(=O)[C@H](CCCCN)NC(=O)[C@H](C2Cc3ccccc3C2)NC(=O)[C@@H](Cc2ccccc2)NC(=O)[C@H](CCN)NC1=O [compound 8888, 3(R)OH-nC9CO-D-Dap-cyc[L-Dab-L-Dab-D-Phe-L-indanylgly-L-Lys-L-Arg-L-Trp]] ({Decanoyl(3R-OH)}-[dDap][Dab][Dab][dF][Igl]KRW; lactam 2-C)		4 µg/mL (≈ 3.21 µM)	2 µg/mL (≈ 1.6 µM)	2 µg/mL (≈ 1.6 µM)	4 µg/mL (≈ 3.21 µM)	4 µg/mL (≈ 3.21 µM)	2 µg/mL (≈ 1.6 µM)	2 µg/mL (≈ 1.6 µM)	8 µg/mL (≈ 6.41 µM)	4 µg/mL (≈ 3.21 µM)	4 µg/mL (≈ 3.21 µM)	2 µg/mL (≈ 1.6 µM)	4 µg/mL (≈ 3.21 µM)		67 µM	
CCCCCCC(=O)N[C@H](CN)C(=O)N[C@H]1CCNC(=O)[C@H](CC(C)C)NC(=O)[C@H](CCN)NC(=O)[C@H](CCN)NC(=O)[C@H](CC(C)C)NC(=O)[C@@H](Cc2ccccc2)NC(=O)[C@H](CCN)NC1=O [compound 9190, nC6CO-D-Dap-cyc[L-Dab-L-Dab-D-Phe-L-Leu-L-Dab-L-Dab-L-Leu]] (Heptanoyl-[dDap][Dab][Dab][dF]L[Dab][Dab]L; lactam 2-C)	> 300 µM	2 µg/mL (≈ 2.06 µM)	8 µg/mL (≈ 8.23 µM)	>32 µg/mL	32 µg/mL (≈ 32.9 µM)	>32 µg/mL	8 µg/mL (≈ 8.23 µM)	16 µg/mL (≈ 16.5 µM)	>32 µg/mL	16 µg/mL (≈ 16.5 µM)	>32 µg/mL	16 µg/mL (≈ 16.5 µM)		4 µg/mL (≈ 4.11 µM)		
CCCCCCC[C@@H](O)CC(=O)N[C@H](CC(N)=O)C(=O)N[C@H]1CCNC(=O)[C@H](CC(C)C)NC(=O)[C@H](CCN)NC(=O)[C@H](CCN)NC(=O)[C@H](Cc2ccccc2)NC(=O)[C@@H](CC(C)C)NC(=O)[C@H](CCN)NC1=O [compound 6432, 3(R)OH-nC9CO-D-Asn-cyc[L-Dab-L-Dab-D-Leu-L-Phe-L-Dab-L-Dab-L-Leu]] ({Decanoyl(3R-OH)}-[dN][Dab][Dab][dL]F[Dab][Dab]L; lactam 2-C)	> 300 µM	16 µg/mL (≈ 15.1 µM)	8 µg/mL (≈ 7.56 µM)	>32 µg/mL	4 µg/mL (≈ 3.78 µM)	4 µg/mL (≈ 3.78 µM)	16 µg/mL (≈ 15.1 µM)	16 µg/mL (≈ 15.1 µM)	>32 µg/mL	16 µg/mL (≈ 15.1 µM)	32 µg/mL (≈ 30.2 µM)	16 µg/mL (≈ 15.1 µM)		4 µg/mL (≈ 3.78 µM)		
CC(C)C[C@@H]1NC(=O)[C@H](CCN)NC(=O)[C@H](CCN)NC(=O)[C@H](CC(C)C)NC(=O)[C@@H](Cc2ccccc2)NC(=O)[C@H](CCN)NC(=O)[C@@H](NC(=O)[C@@H](CCN)NC(=O)c2ccc(-c3ccccc3)cc2)CCNC1=O [compound 6526, Ph-4-PhCO-D-Dab-cyc[L-Dab-L-Dab-D-Phe-L-Leu-L-Dab-L-Dab-L-Leu]] ({Benzoyl(4-Ph)}-[dDab][Dab][Dab][dF]L[Dab][Dab]L; lactam 2-C)	> 300 µM	2 µg/mL (≈ 1.9 µM)	4 µg/mL (≈ 3.79 µM)	>32 µg/mL	32 µg/mL (≈ 30.4 µM)	>32 µg/mL	8 µg/mL (≈ 7.59 µM)	8 µg/mL (≈ 7.59 µM)	>32 µg/mL	8 µg/mL (≈ 7.59 µM)	>32 µg/mL	8 µg/mL (≈ 7.59 µM)				1 µg/mL (≈ 0.948 µM)
